Literature values in patent US20110117194A1, “PHARMACEUTICAL FORMULATION CONTAINING ANGIOTENSIN-II RECEPTOR BLOCKER” (priority 2008, published 2011).

time to peak blood concentration (active losartan molecule released into blood): ≤ 1 h
plasma clearance rate (in vivo): 600 mL/min
SMILES: CCCCc1nc(Cl)c(CO)n1Cc1ccc(-c2ccccc2-c2nn[nH]n2)cc1 [losartan]
